Laboratory results reported in ChEMBL document CHEMBL4177674, “Cyclotides, a versatile ultrastable micro-protein scaffold for biotechnological applications” (Bioorg Med Chem Lett, 2017).
Bridge positions count the residues as written; N and C are the ends. Peptide text beside a SMILES is read from it.

molecular target: T1, Serine protease 1 (Bos taurus, UniProt P00760); test: Inhibition of bovine beta-trypsin incubated for 5 mins using BAPNA as substrate by colorimetric assay
T1 sequence (P00760 whole entry): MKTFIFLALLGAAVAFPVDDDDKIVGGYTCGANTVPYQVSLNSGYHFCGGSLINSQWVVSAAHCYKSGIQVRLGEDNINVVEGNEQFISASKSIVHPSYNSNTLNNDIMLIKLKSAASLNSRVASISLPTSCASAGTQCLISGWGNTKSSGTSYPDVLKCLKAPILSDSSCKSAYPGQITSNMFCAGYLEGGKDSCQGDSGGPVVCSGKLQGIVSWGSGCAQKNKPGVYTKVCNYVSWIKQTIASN

Question: CCC(C)[C@@H]1NC(=O)CNC(=O)[C@H](CC(N)=O)NC(=O)[C@H](Cc2ccc(O)cc2)NC(=O)[C@@H]2CSSC[C@@H]3NC(=O)[C@@H]4CCCN4C(=O)[C@H](C(C)CC)NC(=O)[C@H](Cc4ccc(O)cc4)NC(=O)[C@H](C(C)C)NC(=O)[C@@H]4CSSC[C@H](NC(=O)[C@H](CO)NC(=O)[C@H](CSSC[C@H](NC(=O)[C@@H]5CCCN5C1=O)C(=O)N[C@@H](C)C(=O)N[C@@H](CCC(=O)O)C(=O)N[C@@H](CO)C(=O)N4)NC(=O)CNC(=O)[C@H](CC(C)C)NC(=O)[C@H](CC(C)C)NC(=O)[C@H](C)NC(=O)[C@H]([C@@H](C)O)NC(=O)[C@H](C(C)C)NC(=O)[C@H]([C@@H](C)O)NC3=O)C(=O)N[C@@H](CO)C(=O)N[C@@H](CC(N)=O)C(=O)N[C@@H](CCCNC(=N)N)C(=O)N[C@@H](C(C)C)C(=O)N2 (stereo partly drawn) was tested. Which Ki did it give?
Answer: 0.02 to 0.03 nM

Question: Which Ki does the source give for CC[C@H](C)[C@@H]1NC(=O)[C@H](C)NC(=O)[C@H](CO)NC(=O)[C@H](CO)NC(=O)[C@H]([C@@H](C)CC)NC(=O)[C@@H]2CSSC[C@@H]3NC(=O)[C@H](C(C)C)NC(=O)[C@H](CCCCN)NC(=O)[C@H](CO)NC(=O)[C@H](CCCCN)NC(=O)[C@@H]4CSSC[C@H](NC(=O)[C@H](CO)NC(=O)[C@H](CCC(=O)O)NC(=O)CNC(=O)[C@H](CSSC[C@H](NC(=O)CNC1=O)C(=O)N[C@@H](CO)C(=O)N4)NC(=O)[C@@H]1CCCN1C(=O)[C@H]([C@@H](C)CC)NC(=O)CNC(=O)[C@H](CC(N)=O)NC(=O)[C@H](CCCNC(=N)N)NC(=O)[C@H](Cc1ccc(O)cc1)NC3=O)C(=O)N[C@@H](C(C)C)C(=O)N[C@@H](Cc1c[nH]c3ccccc13)C(=O)N[C@@H]([C@@H](C)CC)C(=O)N1CCC[C@H]1C(=O)N2 (cyclo(AIGCSCKSKVCYRNGIPCGESCVWIPCISS); disulfide 4-18, 6-22, 11-27) here?
Answer: 0.02 to 0.03 nM

Question: How did the Ki turn out when CC[C@H](C)[C@@H]1NC(=O)[C@@H]2CCCN2C(=O)[C@H](Cc2c[nH]c3ccccc23)NC(=O)[C@H]([C@@H](C)O)NC(=O)[C@@H]2CSSC[C@@H]3NC(=O)[C@H]([C@@H](C)O)NC(=O)[C@H](CCC(=O)O)NC(=O)CNC(=O)[C@@H]4CSSC[C@H](NC(=O)CNC(=O)[C@@H]5CCCN5C(=O)[C@H]([C@@H](C)O)NC(=O)[C@H](CC(N)=O)NC(=O)[C@H](CSSC[C@H](NC1=O)C(=O)N[C@@H]([C@@H](C)O)C(=O)N[C@@H](CCCNC(=N)N)C(=O)N[C@@H](CC(=O)O)C(=O)NCC(=O)N[C@@H](CC(C)C)C(=O)N1CCC[C@H]1C(=O)N[C@@H](C(C)C)C(=O)N4)NC(=O)[C@H]([C@@H](C)O)NC(=O)CNC(=O)CNC(=O)[C@H](Cc1ccccc1)NC3=O)C(=O)N[C@@H](CO)C(=O)N2 (cyclo(CFGGTCNTPGCSCTWPICTRDGLPVCGET); disulfide 1-13, 6-18, 11-26) was run?
Answer: 0.02 to 0.03 nM
